Experimental data: US20240058455A1, “BIOORTHOGONAL LINKERS AND REACTIONS” (The General Hospital Corporation, priority 2020, published 2024)
Where a SMILES comes first, the peptide text is derived from it.

Tests used:
[1] = Endpoint cleavage of AF594-C2TCO-AF594 with tetrazines (HPLC, fluorescence detection); details: 15 + excess tetrazine, buffered solution pH 7.4, endpoint 24 h
Method: As an initial assessment of cleavage efficiency, 15 was reacted with an excess of selected tetrazines in buffered solution at pH 7.4 and analyzed the reaction mixtures at an endpoint of 24 h by HPLC with fluorescence detection. […] One hypothesis is that this is not only due to slow tautomerization, but also limited elimination of the respective B1/B2 intermediate. The inability to achieve complete release with Pyr2Tz highlights the advantages of a cleavage directing group.
Release measurements with AF594-C2TCO-AF594: Analytical stock solutions and buffers. 10 mM stock solutions of the release probe AF594-C2TCO-AF594 was prepared and further diluted with citrate-phosphate buffer (as indicated below), so that the final concentration of DMSO in buffer was never higher than 2%. Tetrazine stock solutions were prepared in DMSO at concentrations ranging from 10-100 mM and diluted with citrate-phosphate buffer (as indicated below), so that the final concentration of DMSO in buffer was never higher than 2%. […]
Endpoint measurements with AF594-C2TCO-AF594. […] The released AF594-amine was detected using an RF-20Axs fluorescence detector and confirmed by a LCMS-2020 mass spectrometer (ESI) implemented in the Nexera X2® UHPLC system.

[2] = Second order rate constants of tetrazines with PEGylated rTCO 6; details: reaction with PEGylated rTCO 6
[3] = Release from rTCO-AlexaFluor 350 conjugate monitored by LCMS; details: Tz 200 μM, 7 125 μM, pH 7, 25° C.; PyrMe within ~8 hours, PyrPA initial fast phase
Method: Similar to the previous study (Carlson et al.), an rTCO-AlexaFluor 350 conjugate was used (7, FIG. 5) to further investigate the release step. Reactions were carried out in buffered aqueous solution at pH 7 and 25° C., selecting concentrations of PyrMe or PyrPA (200 μM) and 7 (125 μM) such that the click reaction was done in less than 4 minutes, allowing temporal monitoring of post-click reactions by LCMS. With PyrMe, slow monophasic release was observed that reached a yield of approximately 50% within ˜8 hours. […] To verify these hypotheses, PyrMe was reacted with rTCO-glycine, the release reaction was allowed to proceed to completion, and the non-releasing isomer was then isolated. […] This key finding is in line with the observations of Sarris et al., who achieved approx. 80% release with PymK (3) and invoked the preferred formation of the releasing adduct with the ethylammonium moiety in head-to-head position. (due to pre-click interaction of NH3^+ with the carbamate functionality of the leaving group) to explain this increased conversion.

[4] = Stability of C2TCO in full cell growth media, titration with DMT; format: in vitro ADME; details: full cell growth media (10% FBS), 37° C., up to 48 h
Source text: C2TCO can be incorporated into probes that bind to intracellular targets.

[5] = in vivo; cited from earlier work

In the case of Cc1nnc(C)nn1 [DMT], the cleavage [1] is reported as “Nearly complete cleavage”.
With Cc1nnc(-c2ccccn2)nn1 [PyrMe] the “rate enhancement vs. DMT” value [2] was “up to 12 fold” and the release yield [3] was “approximately 50%”.
For OC1/C=C/C(O)CCCC1 (stereo not drawn) [C2TCO, anti-cyclooct-2-ene-1,4-diol], the “stability (intact C2TCO)” value [4] was > 97%.
In the case of alteplase: widely-used tPA thrombolytic, the “clearance t1/2” value [5] is given as “about 5 min”.
Work on c1ccc(-c2nnc(-c3ccccn3)nn2)nc1 [Pyr2Tz, 3,6-bis(2-pyridyl)tetrazine] yielded a cleavage [1] of 23%.
In the case of O=C(O)CCc1nnc(-c2ccccn2)nn1 [PyrPA], the release yield [3] is reported as “very similar release yield”.
In the case of N=C(N)NCCCC[C@@H]1NC(=O)CCSSC[C@@H](C(N)=O)NC(=O)[C@@H]2CCCN2C(=O)[C@H](Cc2c[nH]c3ccccc23)NC(=O)[C@H](CC(=O)O)NC(=O)CNC1=O [Eptifibatide] (HELM PEPTIDE1{[O=C(CCS[*:3])[*:2]].[N=C(N)NCCCC[C@H](N[*:1])C(=O)[*:2]].G.D.W.P.C.[am]}$PEPTIDE1,PEPTIDE1,1:R3-7:R3$$$V2.0), the half-life [5] is given as 3 to 4 h.
